This note sets out measurements from US7658706B2, “Vascular graft sterilization and decellularization” (RTI Biologics, Inc., priority 2005, dated 2010).

Data set [1] in a line: Biocompatibility of the detergent injected in a rat. As to conditions: 0.25%, 0.1%, 0.01%, 0.001% in four sites, 6 weeks after surgery. It is filed as in vivo, Sprague Dawley rats. The protocol: Four implants from each group go into one rat for a total of 7 rats and 28 implant sites. An eighth rat is injected in four sites with decreasing concentrations of sodium deoxycholate (0.25%, 0.1%, 0.01%, 0.001%) to measure the biocompatibility of the detergent.

The subject of data set [2] is class I MHC antigens in human saphenous vein. The data set is described as follows: Immunohistochemical stain for class I MHC antigens after decellularization (Example 1). To be noted: high concentrations and high temperatures. The procedure: The effectiveness of cell and cellular debris removal was evaluated using two detergent and two enzyme solutions at various concentrations (Table 2). […] One treatment group combined Triton-X 100 with sodium deoxycholate. Trypsin alone at 0.05% (w/v) or 1.0% (w/v) and in combination with 0.02% (w/v) EDTA were the enzyme solutions used in the decellularization process.
Samples were then rinsed in PBS at room temperature for 10 minutes while continuously shaking. Following the rinse step, the samples were cut in half and either prepared for histology or immunohistochemistry.
Immunohistochemistry was used to determine the level of antigens remaining in the tissue after treatment. […] Samples were prepared in frozen blocks and sectioned with a cryostat. The sections were thawed and then rinsed for blocking and antibody staining. Sections were incubated for 30 minutes in primary antibody (mouse anti-HLA-ABC class I MHC) solution and then for anther 30 minutes in diluted biotinylated secondary antibody (Vector ABC Elite kit) solution. An enzyme substrate, NovaRed (Vector), was used to stain the antibodies red. The counter stain was hematoxylin providing a blue contrast.
A Zeiss Axiophot 2 microscope with a motorized Ludl scanning stage was used with tile field mapping at 5× to capture the entire image in one frame. Particle analysis was performed in Image J to determine the ratio of antigen staining (red) to the total tissue sample.
A blue and green filter was applied to only allow red to pass. Obvious areas of antigen staining were removed due to this variation in red hue. […] All samples were compared to their negatives for a percentage of red staining.
This procedure was applied to all images. […] The treatment groups are labeled according to the detergent or enzyme used followed by the processing conditions. For the Trypsin and Trypsin+EDTA groups, the concentrations ranged from 0.05% (L) to 1.0% (H), the processing temperatures were 37° C. (L), 48° C. (M) and 55° C. (H), and the processing times were 6 hrs (L), 17 hrs (M) and 24 hrs (H).

Data set [3] concerns collagen. Description: Collagen denaturation, quantitative enzyme digestion assay (matrix integrity). The procedure:
One of the major structural components of the extracellular matrix that gives veins their strength is collagen. Damage to collagen can result in mechanical failures such as increased compliance or aneurism formation. It can also result in a cellular response due the exposure of the triple helix when stability is compromised. The amount of collagen denaturation was assessed to evaluate processing conditions with a quantitative enzyme digestion assay. […] Digested and undigested fractions are separated and hydrolyzed with concentrated hydrochloric acid (HCl) to release free amino acids from each fraction. Following neutralization of the acid in 1 N NaOH, levels of hydroxyproline (an amino acid present in high concentrations in collagen) are assessed in each fraction by a calorimetric method at a wavelength of 550 nm (Chloramine T binding, and reduction of the substrate DAB to a colored end product). The level of denatured collagen in a given sample is then expressed as a percent of the trypsin soluble fraction to the sum of both trypsin soluble and trypsin insoluble fractions.
Achieving the appropriate log reduction should not come at the expense of the integrity of the extracellular matrix. […] The effect of hydrogen peroxide at 6% at 40° C. and 50° C. on collagen was compared to PAA at 0.1% at the same specified temperatures.
Digested and undigested fractions are separated and hydrolyzed with concentrated hydrochloric acid (HCl) to release free amino acids from each fraction. Following neutralization of the acid in 1 N NaOH, levels of hydroxyproline (an amino acid present in high concentrations only in collagen) are assessed in each fraction by a calorimetric method (Chloramine T binding, and reduction of the substrate DAB to a colored end product). The level of denatured collagen in a given sample is then expressed as a percent of the trypsin soluble fraction to the sum of both trypsin soluble and trypsin insoluble fractions.

Data set [4] relates to human saphenous vein. The data set is described as follows: Histology (H&E) for cellularity and matrix (Example 1). To be noted: 1.0% Cholate at 48° C. The protocol:
Samples of human saphenous veins 10 mm in length were placed in each of the test solution at 37° C. or 48° C. for both 6 and 24 hours while continuously shaking. Samples were then rinsed in PBS at room temperature for 10 minutes while continuously shaking. Following the rinse step, the samples were cut in half and either prepared for histology or immunohistochemistry.
Samples were placed in 10% buffered formalin immediately following the rinse step and remained there for at least 24 hours before further preparation. Then, the samples were embedded in paraffin and stained with hematoxylin and eosin (H&E) to determine cellularity.
The results of the immunohistochemical stain were compared to histology slides stained for cellularity (FIGS. 7 to 10). […] The extracellular matrix is preserved in each segment except with 1.0% Cholate at 48° C.

Data set [5] deals with Bacillus stearothermophilus. Description: Growth inhibition by residual germicide on TSA and blood agar plates. It counts as cell-based. As to conditions: within the processing concentrations, blood agar plates (FIG. 13). The procedure: (§1) In order to determine the reduction in spores after processing with cleaning agents, an effective and consistent method was developed. […] It was determined that residual hydrogen peroxide inhibited the growth at concentrations of 0.6% or higher for TSA plates and 6% or higher for blood plates (FIG. 12). It is believed that the catalase contained in the blood agar plates inactivated the hydrogen peroxide. […] Even though the blood agar plates allowed for dilutions as low as 1:10, the titre used was too low to detect more than a 3 log reduction in the process limiting the data collection for the survivor curves.

A short description of data set [6]: Bradford Assay of nonspecific proteins in collagenase digested vein samples. Set-up: species or system human. As to conditions: 0.1% peracetic acid versus 6% hydrogen peroxide (FIGS. 29, 30). The procedure:
In a further study, the efficiency of peracetic acid (PAA) versus hydrogen peroxide (HP) was investigated. Samples were treated in either 0.1% PAA or 6% HP and were exposed for varying lengths of time at varying temperatures.
Without wishing to be bound by theory, it is believed that the peracetic acid opens the collagen matrix up to allow for greater penetration of the tissue. It also believed to break down the proteins better than hydrogen peroxide. […] The Bradford Assay (Bradford, 1976) is used to quantify nonspecific proteins in collagenase digested vein samples. The Bradford Assay is a general protein assay, is based on an absorbance shift in a dye (Coomassie brilliant blue G-250 dye (CBBG)). CBBG has an absorbance shift when bound to arginine and hydrophobic amino acid residues (e.g., tryptophan, tyrosine, histidine and phenylalanine) present in protein. The reduction in antigenicity is correlated in the immunohistochemical staining (e.g., groups L and K from Example 5) and the histopathology scores (e.g., prototype recipe from Example 4).

For data set [7], the system named is B. stearothermophilus spores. Description: Suspension sterilization: survivor/reduction curves for spores in germicide. It counts as cell-based, Bacillus stearothermophilus. To be noted: 40° C.
From the text: The effectiveness of a sterilant is defined in terms of decimal reduction time (D-value). This is the exposure time (t) used under certain conditions to cause one log reduction (n) (90%) of the initial population. A suspension is expected to follow a predictable death rate regarding a plot of the amount of survivors over time. The negative reciprocal of the slope of regression lines of survivor curves gives the D-value where t=D×n n=[…]
as §1
To ensure consistency, each vial was vortexed before each replicate and all of the material was removed from the pipette tip onto the plate. Disposable plate spreaders were used to prevent cross contamination. The moisture needed to be maintained at a certain level because the plates would dry out at 60° C., but if there was too much moisture the bacteria would streak across the plate and prevent an accurate count. The first procedure implemented was propping the plates open in a laminar flow hood to allow excessive moisture to dry. The second method employed was placing the plates in a beaker with a porous covering to trap some moisture while allowing the excess to evaporate.
Hydrogen peroxide at a concentration of 6% was used at temperatures of 40, 45 and 50° C. to calculate a curve for modeling the temperature effects on spore kill. […] Samples were removed and immediately placed in an ice bath at 10, 15, 20 and 30 min. The vial was well-mixed on a vortex, and then diluted 1:10 in series before plating.
Peracetic acid at concentrations of 0.1%, 0.05% and 0.005% were used only at 40° C. to calculate a curve for modeling the concentration effects on spore kill. […] Samples were removed and immediately placed in an ice bath at various time points depending on the concentration. The vial was well-mixed on a vortex, and then diluted 1:10 in series before plating.
Typically, a survivor curve is constructed with the initial population at time zero and the resultant populations at various time points. Since not all data points could be completed in the same day, some reduction curves were constructed to compare log reduction in the controls for each experiment over time. This normalized the data to its own experimental episode.

sodium deoxycholate: the “response to injected detergent” value in data set [1] is reported as “No response was noted”. In data set [2], the “removal of class I MHC staining” value is recorded as “approximately 100%” and the staining result was “approximately 0%”. In addition, the “collagen degradation compared to untreated controls” value in data set [3] (Triton 1.0%, Cholate 0.25%, 48° C., 24 hours, constant agitation (FIG. 11)) was “A significant degradative effect was not seen”. Moreover, the “extracellular matrix in histology” value in data set [4] is “large holes within the venous wall and separation between the fibers”.
Turning to `CC(=O)OO` [peracetic acid], in data set [5], the “growth inhibition by residual germicide” value was “no inhibition was observed”. Moreover, the “efficiency in breaking down proteins” value in data set [6] is recorded as “more efficient than 6% hydrogen peroxide in significantly breaking down proteins”. Moreover, in data set [3] (0.1% PAA (FIGS. 31, 32)), the “amount of digestible hydroxyproline” value is “did not increase the amount of digestible hydroxyproline”. Besides, in data set [3] (6% hydrogen peroxide, 0.1% PAA, 50° C., one hour (FIG. 22)), the “ratio of degraded collagen compared to untreated controls” value is reported as “significantly altered matrix properties”. The D-value in data set [7] (0.005% PAA, spores in suspension (FIG. 19)) is reported as 6.45; in data set [7] (0.05% PAA, spores in suspension (FIG. 18)), 1.90. Also, the “time for a 6 log reduction” value in data set [7] (0.05% PAA, suspension) turned out to be 11 minutes.
